{"source": "patent US20230057621A1", "about": "(priority 2019, published 2023)", "assay_type_in_all_cases": "cell-based", "key": {"[1]": {"test_system": "pseudorabies virus"}, "[2]": {"test_system": "EB virus"}, "[3]": {"test_system": "pseudorabies virus", "remark": "listed apart in the source"}}}
{"smiles": "CC(C)(C)C(=O)OCOP(=O)(COCCn1cnc2c(N)ncnc21)OCOC(=O)C(C)(C)C", "note": "[adefovir dipivoxil]", "values": [{"measurement": "inhibition of the release of pseudorabies virus from cells", "setting": "[1]", "result": "can significantly inhibit the release of pseudorabies virus from cells"}, {"measurement": "inhibitory activity against EB virus replication", "setting": "[2]", "result": "no inhibitory activity against EB virus"}, {"measurement": "EC50 for the inhibition against pseudorabies virus proliferation", "setting": "[3]", "result": "reaches nanomolar level"}, {"measurement": "inhibitory effect on pseudorabies virus replication and proliferation", "setting": "[3]", "result": "can significantly inhibit the replication and proliferation of pseudorabies virus"}]}
